The subject of assay [1] is primary alveolar epithelial cells (AE) and endothelial cells with whole blood. As to the kind of experiment: Lung-on-a-chip stimulated with TNF-α or LPS: vascular ICAM-1, P-E, clots, gap junctions. The format is cell-based, human. An excerpt: (§1) Specifically, the analysis includes a method to quantitate platelet function in flow chambers and microfluidic devices that has been primarily limited to analyzing platelet adhesion on bare collagen surfaces. To analyze platelet-endothelial dynamics that will act as a robust readout of physiologically-relevant clotting, an automated imaging program creates an image time-series, K(x, y, t), containing a 10-frame panorama in space. Images are acquired at a frame rate of 2 panoramic images per minute, for a total time of 15 minutes. A non-dimensional stochastic index is derived to quantitate platelet endothelial dynamics (“P-E”), which is the interpercentile range of a coefficient of variance of the image time-series: P-E=range(CV(K(x,y,t) (1) A feature of this analytical readout is that instead of an “ensemble averaging,” the method incorporates the cell-surface interactions at the pixel level and quantitates statistical “dispersion” of interactions.
After plasma treatment of the microfluidic devices, the two chambers are pre-treated with 10% (3-aminopropyl)-trimethoxysilane (APTMES, e.g., from Sigma) in 100% anhydrous alcohol (e.g., from Sigma) for 10-20 minutes. The chambers are flushed sequentially with 70% ethanol in water and 100% ethanol, and then dried at 60-80° C. for two hours. Then, a mixture of rat tail collagen I (100 μg ml^−1 in PBS, from BD Biosciences) and fibronectin (e.g., 30 μg/ml in PBSm, from BD Biosciences) is introduced in both chambers of the microfluidic device. The microfluidic device is incubated at 37° C. for at least 2 hours before flushing with PBS or EGM-2 cell culture media.
Some of the microfluidic devices are used with collagen coating alone (without cells). In other devices, HUVECs (e.g. from Lonza) are cultured in Endothelial Growth Medium-2 (EGM-2, from Lonza) and used between certain passages. The cells (5-10×10^6 cells/ml) are introduced into the collagen-coated channels and incubated for 20 minutes at 37° C. to promote cell attachment before a second similar HUVEC suspension is, then, introduced. The microfluidic devices are incubated upside down for an additional 20 minutes to seed the cells on the ceiling and walls of the lower chamber.
The lower chamber is then flushed with EGM-2 and, then, a suspension of primary alveolar epithelial cells (e.g., from ScienCell Research Labs, Carlsbad, Calif.; 5-6×10^6 cells ml^−1) is introduced into the top chamber of the device. After a few hours, the top and bottom chambers are flushed with their respective media, and the microfluidic devices are incubated at 37° C. under 5% CO2 for 3 days (with media being replaced each day once). On day 4, the bottom vascular chamber is set on perfusion of EGM-2 media (e.g., 30 μL hr^−1; 0.5% fetal bovine serum) to provide shear to the HUVEC vessel chamber and a continuous supply of fresh media.
On day 6, the epithelial cell media in the top chamber is aspirated to create the air-liquid interface of the alveoli. Hereon, the cell culture continues for another 6-8 days, after which, in some cases, the top chamber is supplemented with 0, 5, or 100 ng ml^−1 TNF-α in PBS (e.g., from Sigma) overnight or LPS (e.g., 100 ng ml^−1 of E. Coli, from Sigma,) for 2 hours to cause cell activation. The LPS is sonicated in ultrasonic bath for about 20-30 minutes before introducing into the microfluidic device. After stimulation, the top chamber is clamped, the bottom chamber is rinsed with culture media, a reservoir cut from a 3 ml slip-tip syringe (e.g., from BD) is inserted on one end of the lower chamber, and a 1/16-inch male luer connector (e.g., from Qosina Corp) is inserted on the other end of the lower chamber.
When analyzing the formation of fibrin, blood samples re added with 15 μg ml^−1 of fluorescently labeled fibrinogen (e.g., Alexa 488 from Invitrogen). […]

Assay [2] deals with HUVECs and platelets. As to the kind of experiment: Platelet adhesion and dynamics on TNF-α stimulated endothelium (living or fixed), whole blood perfusion. The format is cell-based, human. The conditions noted are these: for platelet aggregation pattern / Aggregation Index (AI) / translocation and embolization of thrombi / Embolization Index (EI): HUVEC, TNF-α 0, 5, 100 ng/ml. The method, then: 500 microliters (“μL”) of whole blood are pipetted into a fluid reservoir fitted to one end of a microchannel. Platelets are labeled with human CD41-PE antibody (e.g., 10 μL/mL from Invitrogen) that is directly added to the blood samples and incubated at room temperature for 10 minutes. Fluorescently labeled fibrinogen (e.g., 10 μg/mL from Life Sciences) is added, if required. Blood is pulled through the device (e.g., 30 μL/min) via tubing at an outlet using a syringe pump (e.g., PHD Ultra™ CP, Harvard Apparatus), resulting in an arterial shear rate of 750 s^−1. After two minutes, blood is supplemented with 100 millimolars (“mM”) calcium (“CaCl2”) and 75 mM magnesium (“MgCl2”) to support coagulation-activated blood clotting (e.g., 100 μL/mL).
Platelets are visualized using time-lapse fluorescence imaging (e.g., 20×, NA 0.4). A time series of a 10-frame panorama (e.g., 6 mm long×0.665 mm wide region of a microchannel), at a lapse of every 30 seconds is recorded. The resulting image stack is maximum intensity projected along time, thresholded, segmented, and cropped to a central 200 microns (“μm”) of the channel width for analysis. Finally, platelet coverage is computed from the binary image as the ratio of bright pixels to the total number of pixels in the image.
Multiple endothelial adhesion molecules are involved in the recruitment of blood cells and platelets in thrombosis in vivo. In previous studies, treatment of a living endothelium cultured in microfluidic channels with TNF-α results in an increase in expression of surface adhesion molecules, such as ICAM-1 and VCAM-1 within four hours after addition. To explore whether a fixed endothelium retains expression of these and other surface molecules that could potentially exacerbate thrombosis, the endothelium is first activated in the device by adding increasing doses of TNF-α, e.g., 0, 5, and 100 nanograms/millliter (“ng/ml”), for approximately 18 hours. The endothelium cells are fixed with 4% paraformaldehyde in phosphate-buffered saline (“PBS”) for 15 minutes at room temperature, are rinsed three times with PBS, and, then, stored in PBS at 4° C. in a humid environment.
To explore whether the fixed endothelium in the microfluidic devices retains the ability to promote hemostasis, recalcified citrated whole blood (coagulation activated) is immediately perfused through a microfluidic channel lined by the fixed endothelium and preserved for 24-36 hours. Platelet adhesion is analyzed for 15 minutes of flow.
as §1
When the device is perfused with whole blood, thrombi that are rich in platelets and fibrin form on the surface (FIG. 65C). The spatiotemporal dynamics of fluorescent platelet activity during formation of these thrombi on the endothelial surface was analyzed by time-lapse imaging. As flow was stable for at least 15 min, all experiments were carried out within the first 15 minutes. In some embodiments, blood might begin to clot in the tubing connected to the chip at later times (leading to decreased perfusion rates). […]

From patent US10732172B1, “Methods, systems, and compositions for determining blood clot formation, and uses thereof” (President and Fellows of Harvard College, priority 2015, dated 2020) come the findings set out here.

“Also recorded” adds a separate entry of the source.

tumor necrosis factor-α [TNF-α]: the “vascular ICAM-1 expression in lung-on-chip” value in assay [1] (TNF-α on alveolar compartment containing AE) is recorded as “increases in a dose-dependent manner”. Besides, the “platelet-endothelial dynamics in lung-on-chip” value in assay [1] (TNF-α stimulated versus untreated) is reported as “follows a similar trend as ICAM-1”. For the same substance, the “clots (platelets and fibrin) in vascular compartment of lung-on-chip” value in assay [1] (TNF-α stimulated, end of assay) is given as “significant amount of clots are observed”. Besides, the “platelet aggregation pattern / Aggregation Index (AI)” value in assay [2] is “heterogeneous and fluctuated in a dose-dependent manner; also recorded: varied depending on the dose of TNF-α”; in assay [2] (listed as TNFα), “rise of AI with increasing TNFα dose”. Moreover, the “translocation and embolization of thrombi / Embolization Index (EI)” value in assay [2] is “great variation in the fluorescent signal over time and space; also recorded: increased with increasing doses”; in assay [2] (listed as TNFα), “increased in a TNFα dose-dependent manner”. Also, in assay [2] (TNF-α stimulated HUVECs (TNF+; TNF++) versus unstimulated), the “area-averaged platelet adhesion rate on living HUVECs” value is “increase in platelet adhesion”. Moreover, in assay [2] (TNF-α treated and fixed, versus fixed collagen or untreated fixed endothelium), the “platelet dynamics (TPD, SPD) on fixed HUVECs” value was “elevated”. Further, in assay [2] (endothelium treated with increasing doses of TNF-α prior to fixation), the “platelet coverage on fixed endothelium” value was “increases in a TNF-α dose-dependent manner; also recorded: dose-dependent increase in platelet surface adhesion; also recorded: dose-dependent increase in surface coverage of platelet-rich thrombi”. In addition, in assay [2] (living endothelium stimulated with TNF-α), the “platelet-endothelial dynamics (P-E; spatial and temporal dispersion)” value was “increase in a TNF-α dose dependent manner; also recorded: significant fluctuations; also recorded: TNF-α dose-dependent increase in both the spatial and temporal dispersion”. For the same substance, the “platelet coverage / adhesion on living endothelium” value in assay [2] (living endothelium stimulated with TNF-α before blood flow) is “increases in a TNF-α dose-dependent manner; also recorded: platelet adhesion again occurs; also recorded: platelet adhesion and aggregation again resulted”.
